# Experimental data: publication PMC7802075 (ACS Infectious Diseases, 2020)
# Counter-ions that a name gives are not always drawn. Like-named read-outs stand apart in the source and are kept apart here.
# Molecular target: T1, LmjIPCS (inositol phosphorylceramide synthase from L. major) (Leishmania major, UniProt E9AFX2)
# T1 sequence (E9AFX2 1-338): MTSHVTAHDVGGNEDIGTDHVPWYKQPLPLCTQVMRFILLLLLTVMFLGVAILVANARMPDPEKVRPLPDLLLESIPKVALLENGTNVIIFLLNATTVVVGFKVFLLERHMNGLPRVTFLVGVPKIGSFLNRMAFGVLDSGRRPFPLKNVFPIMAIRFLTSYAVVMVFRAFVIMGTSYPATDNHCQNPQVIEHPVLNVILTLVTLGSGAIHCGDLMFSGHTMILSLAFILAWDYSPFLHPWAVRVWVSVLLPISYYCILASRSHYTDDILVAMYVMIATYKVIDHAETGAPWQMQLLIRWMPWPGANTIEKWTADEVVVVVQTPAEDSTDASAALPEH
# Assay: biochemical
# Type: biochemical
# Set-up: inhibition: dose or concentration left out as unconfirmed
# Conditions: for inhibition at 20000 µM: read-out: 20mM inhibition LmjIPCS; for inhibition: read-out: inhibition LmjIPCS
# [1] = screening of NINDS set, sheet Screen 1
# [2] = NINDS set screen, single concentration printed as 20mM
compound,measurement,setting,value
Cc1ccc(S(=O)(=O)NC(=O)NN2CCCCCC2)cc1 [TOLAZAMIDE],inhibition at 20000 µM,,-5%
Nc1nccs1 [AMINOTHIAZOLE],inhibition at 20000 µM,,-32%
O=C(OCC(O)CO)c1ccccc1Nc1ccnc2cc(Cl)ccc12 (centres unmarked) [GLAFENINE],inhibition at 20000 µM,,-16%
MERBROMIN,20mM inhibition LmjIPCS,,-21%
CCN(CC)CCOC(=O)C(Cc1cccc2ccccc12)CC1CCCO1 (centres unmarked) [NAFRONYL],20mM inhibition LmjIPCS,,46%
CC(C(=O)O)c1ccc2c(c1)[nH]c1ccc(Cl)cc12 (centres unmarked) [CARPROFEN],inhibition,[1],7%
COC(=O)[C@H]1[C@H]2C[C@H]3c4[nH]c5ccccc5c4CCN3C[C@H]2CC[C@@H]1O [RAUWOLSCINE],inhibition,,12%
CN1CCCN=C1COC(=O)C(O)(c1ccccc1)C1CCCCC1 (centres unmarked) [OXYPHENCYCLIMINE],20mM inhibition LmjIPCS,,53%
Cc1onc(-c2ccccc2)c1C(=O)N[C@@H]1C(=O)N2[C@@H]1SC(C)(C)[C@@H]2C(=O)O [OXACILLIN],inhibition at 20000 µM,,16%
Cc1ccc(-c2cc(C(F)(F)F)nn2-c2ccc(S(N)(=O)=O)cc2)cc1 [CELECOXIB],20mM inhibition LmjIPCS,,51%
Cc1ccc(/N=C/N(C)/C=N/c2ccc(C)cc2C)c(C)c1 [AMITRAZ],20mM inhibition LmjIPCS,,55%
COc1ccc(Cc2nccc3cc(OC)c(OC)cc23)cc1OC [PAPAVERINE],inhibition at 20000 µM,,21%
CC[C@]12CCCN3CCc4c(n(c5ccccc45)[C@@](O)(C(=O)OC)C1)[C@@H]32 [VINCAMINE],inhibition,NINDS set screen,-17%
CN(C)CCC=C1c2ccccc2C=Cc2ccccc21 [CYCLOBENZAPRINE],inhibition at 20000 µM,,-2.37%
CC(=O)[C@H]1CC[C@H]2[C@@H]3CCC4=CC(=O)CC[C@]4(C)[C@H]3CC[C@]12C [PROGESTERONE],20mM inhibition LmjIPCS,,65%
C[C@H]1C(=O)O[C@@H]2CCN3CC=C(COC(=O)[C@](C)(O)[C@]1(C)O)[C@H]23 [MONOCROTALINE],inhibition at 20000 µM,,2%
Nc1nc(N)c2nc(-c3ccccc3)c(N)nc2n1,20mM inhibition LmjIPCS,[2],36%
CS(=O)(=O)Nc1ccc([N+](=O)[O-])cc1Oc1ccccc1 [NIMESULIDE],inhibition at 20000 µM,,11%
CN1[C@@H](CC(=O)c2ccccc2)CCC[C@H]1C[C@H](O)c1ccccc1 [LOBELINE],20mM inhibition LmjIPCS,,38%
O=C1C[C@@H](c2ccccc2)Oc2cc(O)cc(O)c21 [PINOCEMBRIN],20mM inhibition LmjIPCS,[2],35%
CC(=O)Oc1ccc2c(c1)CC[C@@H]1[C@@H]2CC[C@]2(C)[C@@H](O)CC[C@@H]12 [ESTRADIOL ACETATE],20mM inhibition LmjIPCS,[2],68%
CCCCc1nc(Cl)c(CO)n1Cc1ccc(-c2ccccc2-c2nn[nH]n2)cc1 [LOSARTAN],inhibition,,-2.81%
NCCCCN=C(N)N [AGMATINE SULFATE],inhibition at 20000 µM,,24%
C[C@]12CC[C@@H]3c4ccc(O)cc4CC[C@H]3[C@@H]1CCC2=O [ESTRONE],inhibition at 20000 µM,,1.15%
C[C@@H]1O[C@@H](OC[C@H]2O[C@@H](Oc3c(-c4ccc(OCCO)c(OCCO)c4)oc4cc(OCCO)cc(O)c4c3=O)[C@H](O)[C@@H](O)[C@@H]2O)[C@H](O)[C@H](O)[C@H]1O [TROXERUTIN],inhibition at 20000 µM,,20%
CC(C)(O)CC[C@@H](O)[C@](C)(O)[C@H]1CC[C@@]2(O)C3=CC(=O)[C@@H]4C[C@@H](O)[C@@H](O)C[C@]4(C)[C@H]3CC[C@]12C [CRUSTECDYSONE],inhibition,NINDS set screen,-3.51%
CCCNCC(O)COc1ccccc1C(=O)CCc1ccccc1 (centres unmarked) [PROPAFENONE],20mM inhibition LmjIPCS,,61%
COc1ccc2c3c([nH]c2c1)C(C)=NCC3 [HARMALINE],20mM inhibition LmjIPCS,,54%
COc1ccc2c(c1OC)C(=O)O[C@@H]2[C@H]1c2c(cc3c(c2OC)OCO3)CCN1C [NOSCAPINE],inhibition,,19%
CCCCN(CCCC)CCCOC(=O)c1ccc(N)cc1 [BUTACAINE],inhibition,NINDS set screen,19%
O=C(O)C(O)C(O)C(=O)O.OCc1cccnc1 (centres unmarked) [NICOTINYL],20mM inhibition LmjIPCS,,6%
CC1=C(/C=C/C(C)=C/C=C/C(C)=C/C=C/C=C(C)/C=C/C=C(C)/C=C/C2=C(C)CCCC2(C)C)C(C)(C)CCC1 [beta-CAROTENE],20mM inhibition LmjIPCS,,45%
O=c1c(O)c(-c2ccc(O)cc2O)oc2cc(O)cc(O)c12 [MORIN],inhibition at 20000 µM,,4%
CN(C)[C@@H]1C(O)=C(C(N)=O)C(=O)[C@@]2(O)C(O)=C3C(=O)c4c(O)cccc4[C@@](C)(O)[C@H]3[C@H](O)[C@@H]12 [OXYTETRACYCLINE],inhibition at 20000 µM,,18%
C[C@]12CCC(=O)C(O)=C1CC[C@@H]1[C@@H]2CC[C@]2(C)C(=O)CC[C@@H]12 [FORMESTANE],inhibition at 20000 µM,,18%
CC(C)NCC(O)COc1cccc2[nH]ccc12 (centres unmarked) [PINDOLOL],inhibition at 20000 µM,,16%
OC(CCN1CCCC1)(c1ccccc1)C1CCCCC1 (centres unmarked) [PROCYCLIDINE],inhibition at 20000 µM,,22%
CC(=O)OCC(=O)[C@@]12OC(C)(C)O[C@@H]1C[C@H]1[C@@H]3C[C@H](F)C4=CC(=O)C=C[C@]4(C)[C@@]3(F)[C@@H](O)C[C@@]12C [FLUOCINONIDE],inhibition at 20000 µM,,6%
CCCc1nn(C)c2c(=O)[nH]c(-c3cc(S(=O)(=O)N4CCN(C)CC4)ccc3OCC)nc12,20mM inhibition LmjIPCS,,50%
CC(=O)c1c(O)c(C)c(O)c2c1OC1=CC(=O)C(C(C)=O)C(=O)C12C (centres unmarked) [USNIC ACID],inhibition at 20000 µM,,29%
OCc1c[nH]c2ccccc12 [INDOLE-3-CARBINOL],inhibition at 20000 µM,,11%
CN1CCC[C@H]1c1cccnc1 [NICOTINE],inhibition at 20000 µM,,10%
Cc1c(C(N)=O)cc([N+](=O)[O-])cc1[N+](=O)[O-] [DINITOLMIDE],inhibition,,5%
CO[C@@]1(NC(=O)CSCC#N)C(=O)N2C(C(=O)O)=C(CSc3nnnn3C)CS[C@@H]21 [CEFMETAZOLE],inhibition at 20000 µM,,13%
C/C=C(\C)C(=O)O[C@H]1C[C@@H](OC(C)=O)[C@@]2(C(=O)OC)CO[C@H]3[C@@H](O)[C@@](C)([C@]45O[C@@]4(C)[C@H]4C[C@@H]5O[C@@H]5OC=C[C@@]54O)[C@H]4[C@]1(CO[C@]4(O)C(=O)OC)[C@@H]32 [AZADIRACHTIN],inhibition at 20000 µM,,3.53%
CC(C)(C)NCC(O)COc1cccc2c1CC(O)C(O)C2 (centres unmarked) [NADOLOL],inhibition,[1],9%
C/C=C(/C)C(=O)O[C@H]1CC[C@@]2(C)[C@@H]3CC[C@H]4[C@]5(O)C[C@H](O)[C@@]6(O)[C@@H](CN7C[C@@H](C)CC[C@H]7[C@@]6(C)O)[C@]5(O)C[C@@]42O[C@]13O [CEVADINE],inhibition at 20000 µM,,10%
COc1cc2nc(N(C)CCCNC(=O)C3CCCO3)nc(N)c2cc1OC (centres unmarked) [ALFLUZOCIN],20mM inhibition LmjIPCS,,8%
NCCCCCC(=O)O [6-AMINOCAPROIC ACID],20mM inhibition LmjIPCS,,43%
O=C(/C=C/C=C/c1ccc2c(c1)OCO2)N1CCCCC1 [PIPERINE],inhibition at 20000 µM,,13%
COc1ccc2c3c1O[C@H]1C[C@@H](O)C=C[C@@]31CCN(C)C2 [GALANTHAMINE],inhibition at 20000 µM,,2.62%
CC1(C)O[C@@H]2C[C@H]3[C@@H]4CCC5=CC(=O)C=C[C@]5(C)[C@@]4(F)[C@@H](O)C[C@]3(C)[C@]2(C(=O)CO)O1 [TRIAMCINOLONE ACETONIDE],20mM inhibition LmjIPCS,,37%
CCCCCCc1ccc(O)cc1O [HEXYLRESORCINOL],20mM inhibition LmjIPCS,[2],47%
CC(=O)N[C@@H]1[C@@H](O)[C@H](O)[C@@H](CO)O[C@H]1O [ACETYLGLUCOSAMINE],20mM inhibition LmjIPCS,,-19%
CC(=O)O[C@H]1C(=O)[C@@]2(C)[C@H]([C@H](OC(=O)c3ccccc3)[C@]3(O)C[C@H](OC(=O)[C@H](O)[C@@H](NC(=O)c4ccccc4)c4ccccc4)C(C)=C1C3(C)C)[C@]1(OC(C)=O)CO[C@@H]1C[C@@H]2O [PACLITAXEL],inhibition,,0.0705%
O=C(O)c1cc2cc(F)ccc2[nH]1 [5-FLUOROINDOLE-2-CARBOXYLIC ACID],20mM inhibition LmjIPCS,,51%
COCCOC(=O)C1=C(C)NC(C)=C(C(=O)OC(C)C)C1c1cccc([N+](=O)[O-])c1 (centres unmarked) [NIMODIPINE],20mM inhibition LmjIPCS,,36%
CC(=O)S[C@@H]1CC2=CC(=O)CC[C@]2(C)[C@H]2CC[C@@]3(C)[C@@H](CC[C@@]34CCC(=O)O4)[C@H]12 [SPIRONOLACTONE],inhibition,NINDS set screen,-1.06%
C[C@@H]1CC[C@H]2[C@@H](C)C(=O)O[C@@H]3O[C@@]4(C)CC[C@@H]1[C@]32OO4 [ARTEMISININ],inhibition,,1.06%
O=C(O)CCC(=O)c1ccc(-c2ccccc2)cc1 [FENBUFEN],inhibition at 20000 µM,,12%
O=C1C(CC[S+]([O-])c2ccccc2)C(=O)N(c2ccccc2)N1c1ccccc1 (centres unmarked) [SULFINPYRAZONE],inhibition,,-6%
CC(=O)O[C@]1(C(C)=O)CC[C@H]2[C@@H]3C[C@H](C)C4=CC(=O)CC[C@]4(C)[C@H]3CC[C@@]21C [MEDROXYPROGESTERONE ACETATE],inhibition,NINDS set screen,17%
CCOC(=O)[C@H](CCc1ccccc1)N[C@H]1CCc2ccccc2N(CC(=O)O)C1=O [BENAZEPRIL],inhibition at 20000 µM,,-0.0339%
CC(=O)O[C@@H]1C[C@H]2C(C)(C)C(=O)C=C[C@]2(C)[C@H]2CC[C@@]3(C)[C@H](c4ccoc4)OC(=O)[C@H]4O[C@]43[C@@]21C [GEDUNIN],20mM inhibition LmjIPCS,[2],48%
NC(=O)N1c2ccccc2C=Cc2ccccc21 [CARBAMAZEPINE],20mM inhibition LmjIPCS,,50%
CC(C)CC(NC(=O)OCC1c2ccccc2-c2ccccc21)C(=O)O (stereo in doubt),inhibition at 20000 µM,,12%
NC(=O)c1ccc[n+]([C@@H]2O[C@H](COP(=O)([O-])OP(=O)(O)OC[C@H]3O[C@@H](n4cnc5c(N)ncnc54)[C@H](OP(=O)(O)O)[C@@H]3O)[C@@H](O)[C@H]2O)c1,inhibition at 20000 µM,,7%
Oc1noc2c1CCNC2 [GABOXADOL],inhibition at 20000 µM,,-24%
CO/N=C(\C(=O)N[C@@H]1C(=O)N2C(C(=O)O)=C(COC(N)=O)CS[C@H]12)c1ccco1 [CEFUROXIME],inhibition,NINDS set screen,16%
Cn1c(=O)c2[nH]cnc2n(C)c1=O [THEOPHYLLINE],inhibition at 20000 µM,,11%
CS(=O)(=O)OCCCCOS(C)(=O)=O [BUSULFAN],20mM inhibition LmjIPCS,[2],44%
